Measurements: patent US20080200454A1, “CARBON-LINKED TETRAHYDRO-PYRAZOLO-PYRIDINE MODULATORS OF CATHEPSIN S” (priority 2007, published 2008)

Target: Recombinant human cathepsin S (CatS) (Homo sapiens, UniProt P25774)
Test: Recombinant human cathepsin S (CatS) inhibition assay, fluorogenic substrate Z-Valine-Valine-Arginine-AMC;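 also: Baculovirus-expressed CatS in pH 5.0 sodium acetate buffer with DTT and NaCl, fluorescence read each minute over 20 min, inhibition derived from rate slope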
Conditions: not given

Chain of Recombinant human cathepsin S (CatS) (P25774 115-331): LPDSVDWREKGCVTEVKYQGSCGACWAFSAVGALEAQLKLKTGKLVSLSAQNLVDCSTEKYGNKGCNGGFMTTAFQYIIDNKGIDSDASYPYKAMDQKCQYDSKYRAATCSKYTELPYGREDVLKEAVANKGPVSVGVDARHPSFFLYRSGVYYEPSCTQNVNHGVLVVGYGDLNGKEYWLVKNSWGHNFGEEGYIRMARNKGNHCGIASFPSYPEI

Row | IC50 [nM] | SMILES
1 | 830 | NC(=O)N1CCc2c(c(-c3ccc(Cl)c(C#Cc4ccc(CN5CCC(N6CCCC6=O)CC5)cc4)c3)nn2CCCN2CCSCC2)C1 [Example 165, 3-{4-Chloro-3-[(4-{[4-(2-oxopyrrolidin-1-yl)piperidin-1-yl]methyl}phenyl)ethynyl]phenyl}-1-(3-thiomorpholin-4-ylpropyl)-1,4,6,7-tetrahydro-5H-pyrazolo[4,3-c]pyridine-5-carboxamide]
2 | 30 | NC(=O)C(=O)N1CCc2c(c(-c3ccc(Cl)c(C#Cc4ccc(Cl)c(C(=O)NCC5CNCCO5)c4)c3)nn2CCCN2CCSCC2)C1 (centres unmarked) [Example 580, 5-[(5-{5-[Amino(oxo)acetyl]-1-(3-thiomorpholin-4-ylpropyl)-4,5,6,7-tetrahydro-1H-pyrazolo[4,3-c]pyridin-3-yl}-2-chlorophenyl)ethynyl]-2-chloro-N-(morpholin-2-ylmethyl)benzamide]
3 | 2450 | CS(=O)(=O)c1cccc(S(=O)(=O)NCCCc2cc(-c3nn(CCCN4CCC(N5CCCC5=O)CC4)c4c3CN(S(C)(=O)=O)CC4)ccc2Cl)c1 [Example 99, N-{3-[2-Chloro-5-(5-methanesulfonyl-1-{3-[4-(2-oxo-pyrrolidin-1-yl)-piperidin-1-yl]-propyl}-4,5,6,7-tetrahydro-1H-pyrazolo[4,3-c]pyridin-3-yl)-phenyl]-propyl}-3-methanesulfonyl-benzenesulfonamide]
4 | 15500 | CS(=O)(=O)N1CCc2c(c(-c3ccc(Cl)c(C#CCNC(=O)c4ccccc4)c3)nn2CCCN2CCOCC2)C1 [Example 53, N-(3-{2-Chloro-5-[5-methanesulfonyl-1-(3-morpholin-4-yl-propyl)-4,5,6,7-tetrahydro-1H-pyrazolo[4,3-c]pyridin-3-yl]-phenyl}-prop-2-ynyl)-benzamide]
5 | 110 | COC(=O)[C@H](NCc1ccc(C#Cc2cc(-c3nn(CCCN4CCOCC4)c4c3CN(S(C)(=O)=O)CC4)ccc2Cl)cc1)c1ccccc1 [Example 211, Methyl (2R)-({[4-({2-chloro-5-[5-(methylsulfonyl)-1-(3-morpholin-4-ylpropyl)-4,5,6,7-tetrahydro-1H-pyrazolo[4,3-c]pyridin-3-yl]phenyl}ethynyl)phenyl]methyl}amino)(phenyl)ethanoate]
6 | 430 | CS(=O)(=O)N1CCc2c(c(-c3ccc(Cl)c(C#CCc4ccccc4)c3)nn2C[C@@H](O)CN2CCC(C3CCNCC3)CC2)C1 [Example 474, (2S)-1-(4,4′-Bipiperidin-1-yl)-3-{3-[4-chloro-3-(3-phenylprop-1-yn-1-yl)phenyl]-5-(methylsulfonyl)-4,5,6,7-tetrahydro-1H-pyrazolo[4,3-c]pyridin-1-yl}propan-2-ol]
7 | 20 | CS(=O)(=O)N1CCc2c(c(-c3ccc(Cl)c(C#Cc4ccc(CN[C@@H](CO)c5ccccc5)cc4)c3)nn2CCCN2CCC(N3CCCC3=O)CC2)C1 [Example 352, 1-(1-{3-[3-(4-Chloro-3-{[4-({[(1R)-2-hydroxy-1-phenylethyl]amino}methyl)phenyl]ethynyl}phenyl)-5-(methylsulfonyl)-4,5,6,7-tetrahydro-1H-pyrazolo[4,3-c]pyridin-1-yl]propyl}piperidin-4-yl)pyrrolidin-2-one]
8 | 6800 | CS(=O)(=O)N1CCc2c(c(-c3ccc(Cl)c(C#CCN4CCS(=O)(=O)CC4)c3)nn2CCCN2CCOCC2)C1 [Example 50, 3-{4-Chloro-3-[3-(1,1-dioxo-1 A^6-thiomorpholin-4-yl)-prop-1-ynyl]-phenyl}-5-methanesulfonyl-1-(3-morpholin-4-yl-propyl)-4,5,6,7-tetrahydro-1H-pyrazolo[4,3-c]pyridine]
9 | 60 | NC(=O)N1CCc2c(c(-c3ccc(Cl)c(C#Cc4ccc(CNCc5ccc(Cl)cc5)cc4)c3)nn2CCCN2CCSCC2)C1 [Example 160, 3-(4-Chloro-3-{[4-({[(4-chlorophenyl)methyl]amino}methyl)phenyl]ethynyl}phenyl)-1-(3-thiomorpholin-4-ylpropyl)-1,4,6,7-tetrahydro-5H-pyrazolo[4,3-c]pyridine-5-carboxamide]
10 | 60 | CS(=O)(=O)N1CCc2c(c(-c3ccc(Cl)c(C#Cc4ccc5c(c4)CN[C@H](C(=O)O)C5)c3)nn2CCCN2CCOCC2)C1 [Example 199, (3S)-7-({2-Chloro-5-[5-(methylsulfonyl)-1-(3-morpholin-4-ylpropyl)-4,5,6,7-tetrahydro-1H-pyrazolo[4,3-c]pyridin-3-yl]phenyl}ethynyl)-1,2,3,4-tetrahydroisoquinoline-3-carboxylic acid]
11 | 50 | C[C@H]1COCCN1CCCn1nc(-c2ccc(Cl)c(C#Cc3ccc(CNCc4ccc(Cl)cc4)cc3)c2)c2c1CCN(C(=O)C(N)=O)C2 [Example 158, 2-[3-(4-Chloro-3-{[4-({[(4-chlorophenyl)methyl]amino}methyl)phenyl]ethynyl}phenyl)-1-{3-[(3S)-3-methylmorpholin-4-yl]propyl}-1,4,6,7-tetrahydro-5H-pyrazolo[4,3-c]pyridin-5-yl]-2-oxoacetamide]

Same assay, conditions: CatS IC50

Row | SMILES | IC50 [nM]
12 | CN1CCc2cc(C#Cc3cc(-c4nn(CCCN5CCOCC5)c5c4CN(S(C)(=O)=O)CC5)ccc3Cl)ccc2C1 [Example 518, 6-({2-Chloro-5-[5-(methylsulfonyl)-1-(3-morpholin-4-ylpropyl)-4,5,6,7-tetrahydro-1H-pyrazolo[4,3-c]pyridin-3-yl]phenyl}ethynyl)-2-methyl-1,2,3,4-tetrahydroisoquinoline] | 390
13 | CS(=O)(=O)N1CCc2c(c(-c3ccc(Cl)c(C#Cc4ccc(CNCc5ccc(Cl)cc5)cc4)c3)nn2CCCN2CCC(C(=O)O)CC2)C1 [Example 336, 1-{3-[3-(4-Chloro-3-{[4-({[(4-chlorophenyl)methyl]amino}methyl)phenyl]ethynyl}phenyl)-5-(methylsulfonyl)-4,5,6,7-tetrahydro-1H-pyrazolo[4,3-c]pyridin-1-yl]propyl}piperidine-4-carboxylic acid] | 150
14 | CC(C)(C)OC(=O)N1Cc2ccc(C#Cc3cc(-c4nn(CCCN5CCOCC5)c5c4CN(S(C)(=O)=O)CC5)ccc3Cl)cc2C1 [Example 392, 1,1-Dimethylethyl 5-({2-chloro-5-[5-(methylsulfonyl)-1-(3-morpholin-4-ylpropyl)-4,5,6,7-tetrahydro-1H-pyrazolo[4,3-c]pyridin-3-yl]phenyl}ethynyl)-1,3-dihydro-2H-isoindole-2-carboxylate] | 180
15 | CS(=O)(=O)N1CCc2c(c(-c3ccc(Cl)c(C#Cc4ccc(C(=O)NC[C@@H]5CCCN5)cc4)c3)nn2CCCN2CCCCC2)C1 [Example 611, 4-({2-Chloro-5-[5-(methylsulfonyl)-1-(3-piperidin-1-ylpropyl)-4,5,6,7-tetrahydro-1H-pyrazolo[4,3-c]pyridin-3-yl]phenyl}ethynyl)-N-[(2S)-pyrrolidin-2-ylmethyl]benzamide] | 100
16 | C[C@H]1COCCN1CCCn1nc(-c2ccc(Cl)c(C#Cc3ccc(Cl)c(C(=O)N4CCCNCC4)c3)c2)c2c1CCN(C(=O)C(N)=O)C2 [Example 575, 2-[3-(4-Chloro-3-{[4-chloro-3-(1,4-diazepan-1-ylcarbonyl)phenyl]ethynyl}phenyl)-1-{3-[(3S)-3-methylmorpholin-4-yl]propyl}-1,4,6,7-tetrahydro-5H-pyrazolo[4,3-c]pyridin-5-yl]-2-oxoacetamide] | 170
17 | CC1(C)CCN(CCCn2nc(-c3ccc(Cl)c(C#Cc4ccc(CNCc5ccc(Cl)cc5)cc4)c3)c3c2CCN(S(C)(=O)=O)C3)CC1 [Example 355, 1-{4-[(2-Chloro-5-{1-[3-(4,4-dimethylpiperidin-1-yl)propyl]-5-(methylsulfonyl)-4,5,6,7-tetrahydro-1H-pyrazolo[4,3-c]pyridin-3-yl}phenyl)ethynyl]phenyl}-N-[(4-chlorophenyl)methyl]methanamine] | 110
18 | CS(=O)(=O)N1CCc2c(c(-c3ccc(Cl)c(C#Cc4ccc(CNCc5ccc(Cl)cc5)cc4)c3)nn2CCCN2C[C@H]3C[C@@H]2CN3)C1 [Example 494, 1-[4-({2-Chloro-5-[1-{3-[(1R,4R)-2,5-diazabicyclo[2.2.1]hept-2-yl]propyl}-5-(methylsulfonyl)-4,5,6,7-tetrahydro-1H-pyrazolo[4,3-c]pyridin-3-yl]phenyl}ethynyl)phenyl]-N-[(4-chlorophenyl)methyl]methanamine] | 310
19 | C[C@H]1COCCN1CCCn1nc(-c2ccc(Cl)c(C#Cc3ccc(Cl)c(C(=O)NCCN4CCOCC4)c3)c2)c2c1CCN(C(=O)C(N)=O)C2 [Example 168, 5-{[5-(5-[Amino(oxo)acetyl]-1-{3-[(3S)-3-methylmorpholin-4-yl]propyl}-4,5,6,7-tetrahydro-1H-pyrazolo[4,3-c]pyridin-3-yl)-2-chlorophenyl]ethynyl}-2-chloro-N-(2-morpholin-4-ylethyl)benzamide] | 30
20 | CC(C)CN1CCc2cc(C#Cc3cc(-c4nn(CCCN5CCOCC5)c5c4CN(S(C)(=O)=O)CC5)ccc3Cl)ccc2C1 [Example 523, 6-({2-Chloro-5-[5-(methylsulfonyl)-1-(3-morpholin-4-ylpropyl)-4,5,6,7-tetrahydro-1H-pyrazolo[4,3-c]pyridin-3-yl]phenyl}ethynyl)-2-(2-methylpropyl)-1,2,3,4-tetrahydroisoquinoline] | 530
21 | NC(=O)N1CCc2c(c(-c3ccc(Cl)c(C#Cc4ccc(CNCc5ccc(OC(F)F)cc5)cc4)c3)nn2CCCN2CCSCC2)C1 [Example 176] | 230
22 | CS(=O)(=O)N1CCc2c(c(-c3ccc(Cl)c(C#Cc4ccc(CN[C@H]5CCCc6ccccc65)cc4)c3)nn2CCCN2CCN(c3ccccn3)CC2)C1 [Example 216, (1S)—N-({4-[(2-Chloro-5-{5-(methylsulfonyl)-1-[3-(4-pyridin-2-ylpiperazin-1-yl)propyl]-4,5,6,7-tetrahydro-1H-pyrazolo[4,3-c]pyridin-3-yl}phenyl)ethynyl]phenyl}methyl)-1,2,3,4-tetrahydronaphthalen-1-amine] | 70
23 | CN(C)Cc1cc(C#Cc2cc(-c3nn(CCCN4CCCCC4)c4c3CN(S(C)(=O)=O)CC4)ccc2Cl)ccc1Cl [Example 617, 1-[2-Chloro-5-({2-chloro-5-[5-(methylsulfonyl)-1-(3-piperidin-1-ylpropyl)-4,5,6,7-tetrahydro-1H-pyrazolo[4,3-c]pyridin-3-yl]phenyl}ethynyl)phenyl]-N,N-dimethylmethanamine] | 40
